Data reported in PMC5923478 (Viruses, 2018).
Like-named read-outs stand apart in the source and are kept apart here.

Tests used:
in vitro [1] = conditions: African green monkey
ZIKV [2] = experiment: microbe, parasite or virus in culture; conditions: Zika virus, Vero, 48 h
HCV = system: HCV; design: method as in ref 11 = [11]; conditions: Huh 7.5.1 cells, 15 µM, 24 h to 48 h; cited from earlier work
ZIKV [3] = system: ZIKV
TBEV [4] = system: TBEV
[5] = system: WNV viral surface E antigen expression; format: cell-based, West Nile virus
[6] = system: Crimean-Congo hemorrhagic fever virus; conditions: cited from earlier work
Chikungunya virus = conditions: Vero cells or primary human fibroblasts; cited from earlier work
WNV [7] = system: WNV
[8] = system: ZIKV surface E antigen expression; format: cell-based, Zika virus
in vitro [9] = conditions: pig
Vero cells = conditions: African green monkey; human
WNV [10] = experiment: microbe, parasite or virus in culture; conditions: West Nile virus, Vero, 48 h
in vitro [11] = experiment: in vitro
TBEV [12] = experiment: microbe, parasite or virus in culture; conditions: Tick-borne encephalitis virus, Vero, 48 h
ZIKV, WNV and TBEV = experiment: organism not typed; format: cell-based
ZIKV [13] = system: ZIKV; design: method as in ref 24 = [24]; conditions: depending on the cultivated cells used; cited from earlier work

SMILES: CCOC(=O)c1c(CSc2ccccc2)n(C)c2cc(Br)c(O)c(CN(C)C)c12.Cl.O [arbidol, ethyl-6-bromo-4-[(dimethylamino)methyl]-5-hydroxy-1-methyl-2-[(phenylthio)methyl]-indole-3-carboxylate hydrochloride monohydrate]
- CC50 (in vitro [1]): 89.72 ± 0.19 µM
- EC50 (ZIKV [2]): 12.1 ± 0.77 µM
- inhibition of HCV replication (HCV): up to 10^3 fold
- EC50 (ZIKV [3]): 10.6 ± 0.74 µM
- ZIKV replication (ZIKV [3]): not inhibited
- ZIKV viral replication (ZIKV [3]): inhibited completely
- reduction in ZIKV titer compared to mock-treated cells (ZIKV [3]): about 10^4 fold
- SI (CC50/EC50) (TBEV [4]): 4.81
- TBEV viral titer reduction compared with non-treated cells (TBEV [4]): 10^3 fold
- inhibition of TBEV replication (TBEV [4]): incomplete
- WNV viral surface E antigen expression [5]: dose-dependent inhibition
- EC50 [6]: 2.8 µg/mL
- EC50 (Chikungunya virus): < 10 µg/mL
- EC50 (WNV [7]): 19.2 ± 0.29 µM
- antiviral effects against WNV (WNV [7]): little or no antiviral effects
- ZIKV surface E antigen expression (immunofluorescence staining) [8]: dose-dependent inhibition
- CC50 (in vitro [9]): 46.8 ± 1.65 µM
- cytotoxicity in Vero cells lower than in Huh-7 cells (Vero cells): about 5 times
- EC50 (WNV [10]): 18.8 ± 0.21 µM
- CC50 (in vitro [11]): 18.7 to 89.7 µM
- CC50 (in vitro [11]; pig (PS), human (UKF-NB-4, HBCA)): 24.8 to 47 µM
- EC50 (TBEV [12]): 18.67 ± 0.15 µM
- antiviral effects in virus infected cells (ZIKV, WNV and TBEV): no antiviral effects
- viral titer in growth curves (ZIKV, WNV and TBEV): rapid reduction of viral titer
- EC50 (ZIKV, WNV and TBEV; Vero, read-out: EC50 values, range over ZIKV, WNV and TBEV): 10.6 to 19.2 µM

SMILES: CC(C)OC(=O)[C@H](C)N[P@](=O)(OC[C@H]1O[C@@H](n2ccc(=O)[nH]c2=O)[C@](C)(F)[C@@H]1O)Oc1ccccc1 [sofosbuvir]
- activity against ZIKV infection (ZIKV [13]): differentially active
